Data taken from PMC11012721 (International Journal of Molecular Sciences, 2024).

Legend:
[1] = parameters: method as in Zhang et al. [60]; settings: ref Zhang et al. [60]; cited from earlier work
[2] = HPLC-ESI-QTOF-MS/MS determination of astragaloside IV in organs post mortem; format: in vivo, mice; settings: for content in kidney (Av) / content in liver (Av) / content in spleen (Av) / content in brain (Av): 1 h after injection, n = 3
Protocol: They were then homogenized in an Eppendorff plastic vial kept in ice. The homogenates of the organs were vortexed with 200 µL of 50% ethanol for 10 min. The Eppendorff vials were centrifuged at 3500 rpm for 5 min and the supernatant was filtered through a nylon syringe filter with a diameter of 0.22 µm into the autosampler vials with the glass inserts. […] Due to the small size and mass of brains, AIV was quantified in these organs after addition of the reference compound (Sigma Aldrich, St. Louis, MO, USA) to the samples. […] The peak areas of astragaloside IV in the brains were compared with the blank solution of the standard compound. The levels of astragaloside IV in the other organs were measured without the presence of the reference compound.
(§1) The liquid chromatograph consisted of a degasser, a binary pump, a column oven, an autosampler and the high-resolution mass detector QTOF-MS/MS with an electrospray ionization source. The chromatographic column Zorbax Eclipse Plus (Agilent Technologies, CA, USA) (150 mm × 2.1 mm, 3.2 um, RP-18) was used to separate the metabolites of the injected matrix in the following gradient of acetonitrile with 0.1% formic acid (solvent B) in the 0.1% aqueous solution of formic acid (solvent A): 0 min—2% B, 2 min—10% B, 6 min—40% B, 35–37 min—95% B and 37.5 min—2% B. The analysis time was set to 43 min, the follow-up time to 5 min, the flow rate to 0.2 mL/min and the injection volume to 10 μL. The detailed settings of the mass spectrometer were as follows: a capillary voltage of 3000 V, a skimmer voltage of 65 V, a mass range of 100–1200 m/z, a collision energy of 10 and 20 V, a nebulizer pressure of 30 psig, a gas flow rate of 12 L/min and gas and sheath gas temperatures of 250 and 325 °C. The Mass Hunter Workstation (version B.10.00) from Agilent Technologies was used to record and process the data obtained. […] For each of the concentrations, the average values of the content of the tested substance in the respective organ were calculated. The standard deviation (SD) values were calculated in each case. The recorded mass chromatograms for the brain samples (injection with saline: n = 2, injection with LPS: n = 3 and 25 mg/kg b.w. with LPS injection: n = 3) were analyzed with the Mass Profiler Professional Program 15.1 from Agilent Technologies (Santa Clara, CA, USA) with a built-in pathways analysis module that uses the Kyoto Encyclopedia of Genes and Genomes (KEGG) database to detect the effects of the injected substance on molecular mechanisms. First, the raw data from the recorded chromatograms were exported in csv format and analyzed in the program. […] Of the 517 entities analyzed, eleven differentiating m/z signals were detected in the samples, with p < 0.05 and a fold change of 2 settings. One of the differentiating signals was phosphatydylcholine, whose behavior in the tested samples was analyzed with the pathways module.

mice [3] = test: passive avoidance test, LPS-induced long-term memory impairment; format: in vivo; settings: LPS 2.5 mg/kg ip
Protocol: (§2) The passive avoidance test in mice is used to assess fear-related learning and memory. The apparatus consists of an acrylic box with two chambers: white (10 × 13 × 15 cm) and black (25 × 20 × 15 cm). During the experiment, the white chamber is illuminated with a bright light (8 W). The black chamber, which is equipped with an electric grid base, is connected to the illuminated chamber.
(§3) A pre-test (training) was carried out before the experiments. Each mouse was placed individually in the illuminated chamber of the device and allowed to explore it within 30 s. The guillotine door separating the two chambers was then opened. The mouse was then allowed to enter the black chamber, where it was immediately treated with an electric shock (0.2 mA) for 2 s. The latency to enter the black chamber was recorded (TL1). During the retention trial, which was performed 24 h after the pre-test, the same mouse was again placed in the lighted chamber of the device. The time required to enter the black chamber was recorded (TL2). In contrast to the pre-test, no foot shock was administered this time. […] The index of latency (IL) was calculated as follows:IL = (TL2 − TL1)/TL1(1)
(§4) After the 30 min delay, the pre-test was performed.

[4] = tested on: phosphatidylcholine PC(22:4(7Z, 10Z, 13Z, 16Z)/16:0) level; test: phosphatidylcholine level in brain samples, pathway analysis (Mass Profiler Professional, KEGG); format: in vivo, mice; settings: for effect on phosphatidylcholine level in brains: LPS model
Protocol: as §1

mice [5] = test: passive avoidance test, SCOP-induced long-term memory impairment; format: in vivo
Protocol: as §2, §3, §4

mice [6] = test: locomotor activity test (photoresistance actimeters); settings: 6, 12.5 or 25 mg/kg ip; 30 min measurement; p > 0.05
AChE = settings: previous studies; cited from earlier work
[7] = AIV 6, 12.5 or 25 mg/kg ip, p > 0.05 vs LPS
[8] = AIV smaller doses (6, 12.5 mg/kg ip), p > 0.05

For `CC(C)(O)[C@@H]1CC[C@](C)([C@H]2[C@@H](O)C[C@@]3(C)[C@@H]4C[C@H](O[C@@H]5O[C@H](CO)[C@@H](O)[C@H](O)[C@H]5O)[C@H]5C(C)(C)[C@@H](O[C@@H]6OC[C@@H](O)[C@H](O)[C@H]6O)CC[C@@]56C[C@@]46CC[C@]23C)O1` [AIV, astragaloside IV], the “route of excretion” value [1] is listed as “excreted slowly via hepatic clearance”, the “content in kidney (Av)” value ([2]; 6 mg/kg ip) is listed as 0.0174 mg/Organ and the “content in liver (Av)” value ([2]; 6 mg/kg ip) is listed as 0.00411 mg/Organ. For the same molecule, the “content in spleen (Av)” value ([2]; 6 mg/kg ip) was 0.03766 mg/Organ, the “content in brain (Av)” value ([2]; 12.5 mg/kg ip) was 0.00012 mg/Organ and the “content in kidney (Av)” value ([2]; 12.5 mg/kg ip) was 0.03882 mg/Organ. The “content in liver (Av)” value ([2]; 12.5 mg/kg ip) was 0.01084 mg/Organ, the “content in spleen (Av)” value ([2]; 12.5 mg/kg ip) was 0.04919 mg/Organ and the “content in brain (Av)” value ([2]; 25 mg/kg ip) was 0.00023 mg/Organ. For the same molecule, the “content in kidney (Av)” value ([2]; 25 mg/kg ip) was 0.08892 mg/Organ, the “content in liver (Av)” value ([2]; 25 mg/kg ip) was 0.02316 mg/Organ and the “content in spleen (Av)” value ([2]; 25 mg/kg ip) was 0.06844 mg/Organ. For the same molecule, the “dose dependence of concentration in soft organ tissues” value ([2]; 6, 12.5, 25 mg/kg ip) was “dose-dependent”, the “rank order of content in soft organs” value ([2]; ip, mice, post mortem) was “highest content of the saponin was found in the kidneys, then in the spleen, liver and brain” and the “attenuation of LPS-impaired acquisition of long-term memory” value (mice [3]; [7]) was “did not attenuate”. The “attenuation of LPS-impaired consolidation of long-term memory” value (mice [3]; [7]) was “did not attenuate”, the “effect on phosphatidylcholine level in brains” value ([4]; astragaloside IV 25 mg/kg b.w. ip) was “restored the level of the compound to that of saline administration” and the “attenuation of SCOP-impaired acquisition of long-term memory” value (mice [5]; AIV 25 mg/kg ip before SCOP 1 mg/kg ip, p < 0.001 vs SCOP) was “attenuated”. For the same molecule, the “attenuation of SCOP-impaired consolidation of long-term memory” value (mice [5]; AIV 25 mg/kg ip, SCOP 1 mg/kg ip, p < 0.01 vs SCOP) was “attenuated”, the “attenuation of SCOP-impaired acquisition of long-term memory” value (mice [5]; [8]) was “ineffective” and the “attenuation of SCOP-impaired consolidation of long-term memory” value (mice [5]; [8]) was “ineffective”. For the same molecule, the “effect of AIV itself on acquisition of long-term memory” value (mice [5]; all doses tested (6, 12.5, 25 mg/kg ip), no SCOP, p < 0.001 vs control) was “improved acquisition”, the “effect on locomotor activity” value (mice [6]) was “no effect” and the “AChE inhibition” value (AChE) was “inhibitor of AChE”.

In the case of `CN1[C@@H]2C[C@@H](OC(=O)[C@H](CO)c3ccccc3)C[C@H]1[C@@H]1O[C@@H]12` [SCOP, Scopolamine, reference compound], the “effect on memory acquisition and consolidation vs control mice” value (mice [5]; SCOP 1 mg/kg ip, p < 0.001) is reported as “impaired both memory acquisition and consolidation”.

For lipopolysaccharide [LPS], the “effect on memory acquisition and consolidation vs control mice” value (mice [3]; p < 0.001) was “impaired both memory acquisition and consolidation”, the “effect on phosphatidylcholine level in brains” value [4] was “decrease the level of phosphatidylcholines” and the “Kennedy Pathway log2 (phosphatidylcholine level)” value ([4]; brain samples, LPS group) was 0. The “One-Carbon Metabolism log2 (phosphatidylcholine level)” value ([4]; brain samples, LPS group) was 0.
